Source: PubChem BioAssay AID248 (DTP/NCI, 2004)
Toxic doses and inconclusive results are not listed. Cut-off read from the data, not from the text of the source: active = T/C of 150% or more; inactive = T/C below 125%.

Test system: L1210 leukemia ip in BDF1 mice, survival T/C
Assay: NCI In Vivo Anticancer Drug Screen. Data for tumor model L1210 Leukemia (intraperitoneal) in B6D2F1 (BDF1) mice
Conditions: endpoint: mean survival time, higher = longer survival
Outline: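 Survival endpoint. Drug-treated group vs vehicle group, expressed as T divided by C. Tumor passaged by transplantation.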

[1] = dose: 50.0 mg/kg/injection, schedule: Q01DX001 (ip), vehicle: saline
[2] = dose: 75.0 mg/kg/injection, schedule: Q01DX001 (ip), vehicle: saline
[3] = dose: 100.0 mg/kg/injection, schedule: Q01DX001 (ip), vehicle: saline
[4] = dose: 150.0 mg/kg/injection, schedule: Q01DX001 (ip), vehicle: saline
[5] = dose: 50.0 mg/kg/injection, schedule: Q01DX009 (ip), vehicle: saline with Tween-80
[6] = dose: 100.0 mg/kg/injection, schedule: Q01DX009 (ip), vehicle: saline with Tween-80
[7] = dose: 200.0 mg/kg/injection, schedule: Q01DX009 (ip), vehicle: other
[8] = dose: 100.0 mg/kg/injection, schedule: Q04DX003 (ip), vehicle: Klucel (hydroxypropylcellulose) (HPC)
[9] = dose: 200.0 mg/kg/injection, schedule: Q04DX003 (ip), vehicle: Klucel (hydroxypropylcellulose) (HPC)
[10] = dose: 100.0 mg/kg/injection, schedule: Q04DX003 (ip), vehicle: saline
[11] = dose: 200.0 mg/kg/injection, schedule: Q04DX003 (ip), vehicle: saline
[12] = dose: 400.0 mg/kg/injection, schedule: Q04DX003 (ip), vehicle: saline
[13] = dose: 400.0 mg/kg/injection, schedule: Q04DX003 (ip), vehicle: Klucel (hydroxypropylcellulose) (HPC)
[14] = dose: 200.0 mg/kg/injection, schedule: Q01DX001 (ip), vehicle: saline
[15] = dose: 400.0 mg/kg/injection, schedule: Q01DX001 (ip), vehicle: saline
[16] = dose: 200.0 mg/kg/injection, schedule: Q01DX009 (ip), vehicle: saline with Tween-80

Measured: T/C

CC(C)N(C(=S)[S-])C(C)C.CC(C)N(C(=S)[S-])C(C)C.[Zn]
inactive: dose: 37.5 mg/kg/injection, schedule: Q01DX009 (ip), vehicle: saline 89 % of control | dose: 75.0 mg/kg/injection, schedule: Q01DX001 (ip), vehicle: acetone 97 % of control | dose: 75.0 mg/kg/injection, schedule: Q01DX009 (ip), vehicle: saline 90 % of control | dose: 75.0 mg/kg/injection, schedule: Q04DX003 (ip), vehicle: saline 101 % of control | dose: 150.0 mg/kg/injection, schedule: Q01DX001 (ip), vehicle: acetone 92 % of control | dose: 150.0 mg/kg/injection, schedule: Q01DX009 (ip), vehicle: saline 86 % of control | dose: 150.0 mg/kg/injection, schedule: Q04DX003 (ip), vehicle: saline 90 % of control | dose: 300.0 mg/kg/injection, schedule: Q01DX001 (ip), vehicle: acetone 93 % of control | dose: 300.0 mg/kg/injection, schedule: Q04DX003 (ip), vehicle: saline 86 % of control

N=c1c2ncn(C3OC(CO)C(O)C3O)c2ncn1O (centres undefined)
inactive: [1] 101 % of control | [2] 111 % of control | [3] 103 % of control | [4] 105 % of control

Cn1ncc2c(NCc3ccccc3Cl)ncnc21
inactive: dose: 25.0 mg/kg/injection, schedule: Q01DX009 (ip), vehicle: saline with Tween-80 102 % of control | [5] 108 % of control | [6] 124 % of control | [7] 93 % of control

CCN(CC)Cc1ncccc1O
inactive: dose: 50.0 mg/kg/injection, schedule: Q01DX009 (ip), vehicle: Klucel (hydroxypropylcellulose) (HPC) 106 % of control | dose: 100.0 mg/kg/injection, schedule: Q01DX009 (ip), vehicle: Klucel (hydroxypropylcellulose) (HPC) 106 % of control | [8] 105 % of control | dose: 200.0 mg/kg/injection, schedule: Q01DX009 (ip), vehicle: Klucel (hydroxypropylcellulose) (HPC) 93 % of control | [9] 104 % of control

C=CCNC(=S)C(C(=O)OC)C(=O)OC
inactive: [10] 103 % of control | [11] 100 % of control | [12] 100 % of control

O=C(NC1CCCCC1)C1C2CC3OC(=O)C1C3C2 (centres undefined)
inactive: dose: 100.0 mg/kg/injection, schedule: Q04DX003 (ip), vehicle: saline with Tween-80 101 % of control | [10] 104 % of control | dose: 200.0 mg/kg/injection, schedule: Q04DX003 (ip), vehicle: saline with Tween-80 97 % of control | [11] 98 % of control | dose: 400.0 mg/kg/injection, schedule: Q04DX003 (ip), vehicle: saline with Tween-80 101 % of control | [12] 104 % of control

CC1CC(C)(C)NC(=S)O1 (centres undefined)
inactive: dose: 15.0 mg/kg/injection, schedule: Q01DX001 (ip), vehicle: carboxymethylcellulose (CMC) 101 % of control | dose: 30.0 mg/kg/injection, schedule: Q01DX001 (ip), vehicle: carboxymethylcellulose (CMC) 102 % of control

COc1ccc(NC(=O)Oc2c(C(C)C)cccc2C(C)C)cc1
inactive: [8] 100 % of control | [9] 96 % of control | [13] 92 % of control

O=C1OC(=O)C2C1C1C3C=CC3C1C21C=C1 (centres undefined)
inactive: dose: 100.0 mg/kg/injection, schedule: Q01DX009 (ip), vehicle: other 100 % of control | [10] 96 % of control | [7] 109 % of control | [11] 93 % of control | dose: 400.0 mg/kg/injection, schedule: Q01DX009 (ip), vehicle: other 110 % of control | [12] 100 % of control

Cc1ncccc1CCO
inactive: [3] 96 % of control | [14] 100 % of control | [15] 102 % of control

O=C(NC(=S)N1CCCC1)c1ccccc1
inactive: dose: 100.0 mg/kg/injection, schedule: Q04DX002 (ip), vehicle: Klucel (hydroxypropylcellulose) (HPC) 96 % of control | dose: 200.0 mg/kg/injection, schedule: Q04DX002 (ip), vehicle: Klucel (hydroxypropylcellulose) (HPC) 107 % of control | dose: 400.0 mg/kg/injection, schedule: Q04DX002 (ip), vehicle: Klucel (hydroxypropylcellulose) (HPC) 96 % of control

CC(C)(C)N(CCO)CC1C(c2ccccc2)C1c1ccccc1 (centres undefined)
inactive: dose: 12.5 mg/kg/injection, schedule: Q04DX002 (ip), vehicle: Klucel (hydroxypropylcellulose) (HPC) 103 % of control | dose: 25.0 mg/kg/injection, schedule: Q04DX002 (ip), vehicle: Klucel (hydroxypropylcellulose) (HPC) 103 % of control | dose: 50.0 mg/kg/injection, schedule: Q04DX002 (ip), vehicle: Klucel (hydroxypropylcellulose) (HPC) 97 % of control

CCNP(=O)(OCC)OCC
inactive: dose: 50.0 mg/kg/injection, schedule: Q01DX001 (ip), vehicle: carboxymethylcellulose (CMC) 94 % of control | dose: 100.0 mg/kg/injection, schedule: Q01DX001 (ip), vehicle: carboxymethylcellulose (CMC) 92 % of control | dose: 200.0 mg/kg/injection, schedule: Q01DX001 (ip), vehicle: carboxymethylcellulose (CMC) 94 % of control | dose: 400.0 mg/kg/injection, schedule: Q01DX001 (ip), vehicle: carboxymethylcellulose (CMC) 118 % of control

CCC(O)C(C)(O)C(=O)O (centres undefined)
inactive: [5] 96 % of control | [6] 96 % of control | [16] 92 % of control

Oc1cc2ccccc2c2c1ccc1ccccc12
inactive: [3] 102 % of control | [14] 111 % of control | [15] 102 % of control

CN=C(NC)c1cccc(NC(=O)Nc2ccc(NC(=O)Nc3cccc(C(=NC)NC)c3)cc2)c1
inactive: dose: 2.3 mg/kg/injection, schedule: Q01DX Z (ip), vehicle: carboxymethylcellulose (CMC) 93 % of control | dose: 3.5 mg/kg/injection, schedule: Q01DX Z (ip), vehicle: carboxymethylcellulose (CMC) 97 % of control | dose: 5.3 mg/kg/injection, schedule: Q01DX Z (ip), vehicle: carboxymethylcellulose (CMC) 95 % of control | dose: 5.5 mg/kg/injection, schedule: Q01DX Z (ip), vehicle: carboxymethylcellulose (CMC) 96 % of control | dose: 8.0 mg/kg/injection, schedule: Q01DX Z (ip), vehicle: carboxymethylcellulose (CMC) 97 % of control | dose: 8.3 mg/kg/injection, schedule: Q01DX Z (ip), vehicle: carboxymethylcellulose (CMC) 98 % of control | dose: 12.5 mg/kg/injection, schedule: Q01DX Z (ip), vehicle: carboxymethylcellulose (CMC) 101 % of control | dose: 18.75 mg/kg/injection, schedule: Q01DX Z (ip), vehicle: carboxymethylcellulose (CMC) 115 % of control

COc1cc(C(=O)Cl)cc(OC)c1OC(C)=O
inactive: [3] 93 % of control | [14] 89 % of control | [15] 91 % of control

C[N+]1(C)OCC2CCCC(c3ccccc3)C21 (centres undefined)
inactive: dose: 12.5 mg/kg/injection, schedule: Q01DX001 (ip), vehicle: saline 104 % of control | dose: 25.0 mg/kg/injection, schedule: Q01DX001 (ip), vehicle: saline 102 % of control | [1] 98 % of control

C/C(=C\c1ccc(O)cc1)[N+](=O)[O-]
inactive: dose: 50.0 mg/kg/injection, schedule: Q01DX009 (ip), vehicle: alcohol 104 % of control | dose: 100.0 mg/kg/injection, schedule: Q01DX009 (ip), vehicle: alcohol 105 % of control | dose: 100.0 mg/kg/injection, schedule: Q04DX003 (ip), vehicle: acetone 96 % of control | dose: 200.0 mg/kg/injection, schedule: Q01DX009 (ip), vehicle: alcohol 91 % of control | dose: 200.0 mg/kg/injection, schedule: Q04DX003 (ip), vehicle: acetone 105 % of control

CNC(=O)NCC1OC(OC)C(O)C(O)C1O (centres undefined)
inactive: [8] 100 % of control | [9] 107 % of control | [13] 100 % of control

C1CSCS1
inactive: dose: 12.5 mg/kg/injection, schedule: Q04DX002 (ip), vehicle: saline with Tween-80 103 % of control | dose: 25.0 mg/kg/injection, schedule: Q04DX002 (ip), vehicle: saline with Tween-80 106 % of control | dose: 50.0 mg/kg/injection, schedule: Q04DX002 (ip), vehicle: saline with Tween-80 106 % of control

Cc1[nH]c(=S)[nH]c(=O)c1CCC(=O)O
inactive: [6] 96 % of control | [8] 94 % of control | [16] 98 % of control | [9] 102 % of control | dose: 400.0 mg/kg/injection, schedule: Q01DX009 (ip), vehicle: saline with Tween-80 98 % of control | [13] 102 % of control

CN(C)CCC(O)C(c1ccccc1)c1ccccc1 (centres undefined)
inactive: [2] 100 % of control | [4] 102 % of control
